The values below are quoted from earlier work in US6045822A, “Liposome preparations of indolocarbazole derivatives description” (Kyowa Hakko Kogyo Co., Ltd., priority 1996, dated 2000).

Molecules are shown by their SMILES.

Series [1] has as its system protein kinase C. To be noted: in words; J. Antibiotics., 40, 1782 (1987).
The conditions of series [2]: in words; Cancer Res., 51, 4888 (1991).

Consider `CNC1CC2OC(C)(C1OC)n1c3ccccc3c3c4c(c5c6ccccc6n2c5c31)C(=O)NC4O` (centres unmarked) [UCN-01], for which the “protein kinase C inhibitory activity” value in series [1] was “has protein kinase C inhibitory activity”. The anti-tumor activity result in series [2] is given as “has anti-tumor activity”.
